Experimental data from ChEMBL document CHEMBL1137443, “Preparation of 4-aryl-2-trifluoromethylbenzonitrile derivatives as androgen receptor antagonists for topical suppression of sebum production” (Bioorg Med Chem Lett, 2007).

Key:
[1] = biological target: T1, Androgen receptor (Homo sapiens, UniProt P10275); test: Displacement of [3H]DHT from human recombinant AR expressed in Sf9 cells
T1 sequence (P10275 whole entry): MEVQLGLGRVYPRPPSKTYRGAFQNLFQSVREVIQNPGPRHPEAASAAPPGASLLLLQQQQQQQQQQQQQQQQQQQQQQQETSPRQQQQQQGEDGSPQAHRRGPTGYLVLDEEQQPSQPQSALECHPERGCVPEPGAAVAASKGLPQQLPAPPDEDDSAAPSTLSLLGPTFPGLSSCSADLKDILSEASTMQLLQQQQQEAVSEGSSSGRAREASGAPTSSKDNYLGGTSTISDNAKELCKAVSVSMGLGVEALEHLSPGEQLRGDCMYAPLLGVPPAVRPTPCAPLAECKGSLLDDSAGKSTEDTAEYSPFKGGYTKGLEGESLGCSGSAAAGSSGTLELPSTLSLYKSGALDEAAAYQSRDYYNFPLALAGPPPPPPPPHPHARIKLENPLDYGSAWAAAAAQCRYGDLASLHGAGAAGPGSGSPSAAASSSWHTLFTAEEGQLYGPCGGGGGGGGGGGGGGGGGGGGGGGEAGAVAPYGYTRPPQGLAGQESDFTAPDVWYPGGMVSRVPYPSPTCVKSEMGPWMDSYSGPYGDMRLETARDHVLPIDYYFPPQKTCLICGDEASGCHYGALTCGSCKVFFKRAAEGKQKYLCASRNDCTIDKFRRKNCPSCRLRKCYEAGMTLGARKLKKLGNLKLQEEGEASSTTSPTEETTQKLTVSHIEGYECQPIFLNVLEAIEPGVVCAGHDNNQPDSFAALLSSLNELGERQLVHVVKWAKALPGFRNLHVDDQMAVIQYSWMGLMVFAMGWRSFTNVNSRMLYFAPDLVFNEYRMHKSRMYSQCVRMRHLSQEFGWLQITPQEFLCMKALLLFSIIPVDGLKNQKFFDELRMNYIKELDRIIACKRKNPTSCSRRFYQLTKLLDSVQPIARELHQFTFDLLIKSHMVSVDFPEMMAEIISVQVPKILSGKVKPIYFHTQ

[2] = biological target: T1, Androgen receptor; test: Antagonist activity at human AR in MDA-MB453-MMTV-luci cells by functional assay; type: cell-based
[3] = biological target: T2, Progesterone receptor (Homo sapiens, UniProt P06401); test: Binding affinity at human PR
T2 sequence (P06401 whole entry): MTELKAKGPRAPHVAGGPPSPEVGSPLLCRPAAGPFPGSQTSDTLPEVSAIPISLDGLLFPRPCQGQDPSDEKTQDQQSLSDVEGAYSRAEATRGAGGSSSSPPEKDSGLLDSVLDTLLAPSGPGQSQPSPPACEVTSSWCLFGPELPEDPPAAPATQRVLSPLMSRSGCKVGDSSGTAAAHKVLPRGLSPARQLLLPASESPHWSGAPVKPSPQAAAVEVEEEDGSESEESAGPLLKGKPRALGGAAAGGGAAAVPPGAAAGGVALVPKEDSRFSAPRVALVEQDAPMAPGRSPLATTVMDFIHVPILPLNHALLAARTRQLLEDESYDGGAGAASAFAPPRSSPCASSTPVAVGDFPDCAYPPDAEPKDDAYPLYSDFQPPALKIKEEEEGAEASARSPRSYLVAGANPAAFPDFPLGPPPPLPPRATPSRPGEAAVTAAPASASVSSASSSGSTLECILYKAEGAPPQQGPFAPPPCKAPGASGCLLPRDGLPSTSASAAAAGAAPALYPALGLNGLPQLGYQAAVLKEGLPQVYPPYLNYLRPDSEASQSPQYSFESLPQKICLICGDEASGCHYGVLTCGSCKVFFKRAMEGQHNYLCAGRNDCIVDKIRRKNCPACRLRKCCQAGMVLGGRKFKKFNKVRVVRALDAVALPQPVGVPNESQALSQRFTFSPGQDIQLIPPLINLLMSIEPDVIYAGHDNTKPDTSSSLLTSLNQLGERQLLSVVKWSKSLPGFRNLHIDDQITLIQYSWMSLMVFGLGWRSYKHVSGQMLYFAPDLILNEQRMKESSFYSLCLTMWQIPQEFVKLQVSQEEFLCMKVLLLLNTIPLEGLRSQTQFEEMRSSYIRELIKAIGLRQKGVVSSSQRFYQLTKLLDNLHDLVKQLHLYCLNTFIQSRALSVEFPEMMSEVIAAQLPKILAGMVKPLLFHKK

[4] = test system: Syrian golden hamster; test: Reduction of wax ester in Golden Syrian hamster ear model relative to control; type: functional, Mesocricetus auratus; design: scale not given: the % may be the effect or the level left

| Compound | IC50 [1] | IC50 [2] | IC50 [3] | Activity [4] |
| --- | --- | --- | --- | --- |
| N#Cc1ccc(-c2ccccc2OCCO)cc1C(F)(F)F | 1540 nM | – | – | – |
| Cc1ccc(-c2ccc(C#N)c(C(F)(F)F)c2)cc1 | 200 nM | 843 nM | – | – |
| Cc1ccccc1-c1ccc(C#N)c(C(F)(F)F)c1 | 146 nM | > 1000 nM | – | – |
| N#Cc1ccc(-c2cccc(O)c2)cc1C(F)(F)F | 229 nM | – | – | – |
| COc1ccc(-c2ccc(C#N)c(C(F)(F)F)c2)cc1 | 56.7 nM | 0.8 nM | 5520 nM | – |
| N#Cc1ccc(-c2ccccc2C(F)(F)F)cc1C(F)(F)F | 10.9 nM | > 1 nM | – | – |
| N#Cc1ccc(-c2ccccc2Cl)cc1C(F)(F)F | 9.8 nM | – | – | – |
| COC(=O)COc1ccccc1-c1ccc(C#N)c(C(F)(F)F)c1 | 1310 nM | – | – | – |
| COc1cccc(-c2ccc(C#N)c(C(F)(F)F)c2)c1 | 955 nM | 140 nM | 9460 nM | – |
| N#Cc1ccc(-c2ccccc2OCC(=O)O)cc1C(F)(F)F | > 10000 nM | – | – | – |
| CC1(C)C(=O)N(c2ccc(C#N)c(C(F)(F)F)c2)C(=O)N1CCCCO [RU-58841] | – | – | – | 95% |
| COc1cccc(OC)c1-c1ccc(C#N)c(C(F)(F)F)c1 | 14.7 nM | 399 nM | – | – |
| N#Cc1ccc(-c2c(O)cccc2O)cc1C(F)(F)F | 989 nM | – | – | – |
| COc1ccccc1-c1ccc(C#N)c(C(F)(F)F)c1 | 37 nM | 20.1 nM | 3250 nM | – |
| COCCOc1ccccc1-c1ccc(C#N)c(C(F)(F)F)c1 | 2230 nM | – | – | – |
| Cc1cccc(-c2ccc(C#N)c(C(F)(F)F)c2)c1 | 1900 nM | – | – | – |
| N#Cc1ccc(-c2ccc(O)cc2)cc1C(F)(F)F | 61.2 nM | 11.9 nM | > 10000 nM | – |
| N#Cc1ccc(-c2ccccc2O)cc1C(F)(F)F | 39.9 nM | 0.02 nM | 4450 nM | 86% |
| COCCOCCOc1ccccc1-c1ccc(C#N)c(C(F)(F)F)c1 | 8140 nM | – | – | – |
